# Calls of active or inactive are those of the source. No cut-off for these calls is given here.
# Tests used:
# [1] = tested on: Bacillus subtilis; experiment: Antibacterial activity against Bacillus subtilis ATCC 6051 at 100 ug/disk by agar disk diffusion assay; type: functional; details: read-out: IZ
# [2] = tested on: Staphylococcus aureus; experiment: Antibacterial activity against Staphylococcus aureus ATCC 29213 at 100 ug/disk by agar disk diffusion assay; type: functional; details: read-out: IZ
# [3] = tested on: Candida albicans; experiment: Antimicrobial activity against Candida albicans ATCC 14053 at 100 ug/disk by agar disk diffusion assay; type: functional; details: read-out: IZ
# [4] = tested on: Escherichia coli; experiment: Antibacterial activity against Escherichia coli ATCC 25922 at 100 ug/disk by agar disk diffusion assay; type: functional; details: read-out: IZ
# [5] = tested on: Fusarium verticillioides; experiment: Antifungal activity against Gibberella moniliformis NRRL 25457 by agar disk diffusion assay; type: functional, organism-based
# [6] = tested on: Fusarium verticillioides; experiment: Antifungal activity against Gibberella moniliformis NRRL 25457 at 200 ug/disk by agar disk diffusion assay; type: functional; details: read-out: IZ
# [7] = tested on: Aspergillus flavus; experiment: Antifungal activity against Aspergillus flavus NRRL 6541 at 200 ug/disk by agar disk diffusion assay; type: functional; details: read-out: IZ
# [8] = tested on: Aspergillus flavus; experiment: Antifungal activity against Aspergillus flavus NRRL 6541 by agar disk diffusion assay; type: functional, organism-based
# [9] = tested on: Aspergillus flavus; experiment: Antifungal activity against Aspergillus flavus NRRL 6541 up to 25 ug/ml by agar disk diffusion assay; type: functional, organism-based
# [10] = tested on: Staphylococcus aureus; experiment: Antibacterial activity against Staphylococcus aureus ATCC 29213 at 25 ug/disk by agar disk diffusion assay; type: functional, organism-based
# [11] = tested on: Bacillus subtilis; experiment: Antibacterial activity against Bacillus subtilis ATCC 6051 at 25 ug/disk by agar disk diffusion assay; type: functional, organism-based
compound,measurement,setting,value
Cc1cc2c(c(O)c1-c1c(C)cc3c(c1O)C(=O)C1=C(O)C=C[C@H](O)[C@]1(C)O3)C(=O)C1=C(O)C=C[C@H](O)[C@]1(C)O2 [PHOMALEVONE A],zone of inhibition at 100 µg/disc,[1],36 mm
same,zone of inhibition at 100 µg/disc,[2],23 mm
Cc1cc(O)c(C(=O)c2c(O)ccc(O)c2C)c(O)c1-c1c(C)cc(O)c(C(=O)c2c(O)ccc(O)c2C)c1O [PHOMALEVONE B],zone of inhibition at 100 µg/disc,[1],38 mm
same,zone of inhibition at 100 µg/disc,[2],26 mm
same,zone of inhibition at 100 µg/disc,[3],18 mm
same,zone of inhibition at 100 µg/disc,[4],18 mm
Cc1cc2c(c(O)c1-c1c(C)cc3c(c1O)C(=O)C1=C(O)C=C[C@H](O)[C@]1(C)O3)C(=O)C1=C(O)C=CC(=O)[C@]1(C)O2 [PHOMALEVONE C],MIC,[5],10 µg/mL
same,zone of inhibition at 200 µg/disc,[6],10 mm
same,zone of inhibition at 100 µg/disc,[1],34 mm
same,zone of inhibition at 100 µg/disc,[2],22 mm
same,zone of inhibition at 200 µg/disc,[7],10 mm
same,IC50,[8],4 µg/mL
same,Activity,[9],inactive
GENTAMICIN SULFATE,inhibition zone (IZ),[10],20 mm
same,inhibition zone (IZ),[11],20 mm
NYSTATIN,MIC,[5],10 µg/mL
same,MIC,[8],10 µg/mL

# — ChEMBL document CHEMBL1764972, “Phomalevones A-C: dimeric and pseudodimeric polyketides from a fungicolous Hawaiian isolate of Phoma sp. (Cucurbitariaceae)” (J Nat Prod, 2011)
